# Experiments:
# brain [1] = details: peripherally formed; cited from earlier work
# glycine modulatory site = details: cited from earlier work
# brain [2] = details: cited from earlier work
# rat kyn-3-OHase = target: T1, rat kyn-3-OHase (Rattus norvegicus, UniProt O88867); experiment: Inhibition of rat kyn-3-OHase expressed in Xenopus laevis oocytes; format: biochemical; details: homogenates of oocytes injected with the clone, 50 μM L-kyn
# T1 construct: encodes a deduced protein of 478 amino acid residues; expressed in transfected cells; host or cells: Xenopus laevis oocytes injected with cRNA of the cloned rat kidney cDNA (homogenate)
# T1 sequence (O88867 whole entry): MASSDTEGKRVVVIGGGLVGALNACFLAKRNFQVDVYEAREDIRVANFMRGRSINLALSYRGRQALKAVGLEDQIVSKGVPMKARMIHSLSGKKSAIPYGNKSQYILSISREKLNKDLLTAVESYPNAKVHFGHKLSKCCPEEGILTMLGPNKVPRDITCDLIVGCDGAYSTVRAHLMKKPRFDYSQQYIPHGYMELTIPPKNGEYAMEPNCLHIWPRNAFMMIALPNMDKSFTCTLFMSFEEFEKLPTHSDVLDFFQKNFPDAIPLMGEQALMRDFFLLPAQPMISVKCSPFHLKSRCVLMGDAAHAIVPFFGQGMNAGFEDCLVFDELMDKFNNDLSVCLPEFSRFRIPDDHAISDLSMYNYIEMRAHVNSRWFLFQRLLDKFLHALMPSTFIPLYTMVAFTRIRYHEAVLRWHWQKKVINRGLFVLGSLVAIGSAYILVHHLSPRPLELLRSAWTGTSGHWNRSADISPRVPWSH
# From the text: Kyn-3-OHase activity was quantified by the conversion of L-kyn to 3-OH-Kyn.
# kyn-3-OHase = details: systemic administration; cited from earlier work
# rats = details: administration to rats; cited from earlier work
# [3] = system: excitatory amino acid receptor; details: sites normally activated by glutamate and aspartate; cited from earlier work
structure (smiles),measurement,setting,value
Nc1c(O)cccc1C(=O)O [3-hydroxyanthranilic acid],entry into the brain,brain [1],enters the brain very poorly
"O=C(O)c1cc(=O)c2ccccc2[nH]1 [KYNA, kynurenic acid]",affinity to the glycine modulatory site,glycine modulatory site,particularly high affinity
same,excitatory amino acid receptor antagonism,glycine modulatory site,effective excitatory amino acid receptor antagonist
same,properties when applied directly into the brain,brain [2],anticonvulsant and neuroprotective properties
"NC(CC(=O)c1ccc(Cl)c(Cl)c1)C(=O)O (racemic) [FCE 28833A, (R,S)-3,4-dichlorobenzoylalanine]",IC50,rat kyn-3-OHase,290 nM
same,endogenous KYNA levels in rat brain tissue,kyn-3-OHase,dose-dependent elevation
same,endogenous kynurenine levels in rat brain tissue,kyn-3-OHase,dose-dependent elevation
"O=C(O)c1cccnc1C(=O)O [QUIN, quinolinic acid]",convulsions,rats,caused convulsions
same,activity at excitatory amino acid receptor sites,[3],agonist
